Data: US20230310356A1, “COMPOSITION FOR PREVENTING, AMELIORATING, OR TREATING BRAIN DAMAGE AND MILD COGNITIVE IMPAIRMENT COMPRISING GLUTAMINE AS EFFECTIVE COMPONENT” (INDUSTRY-ACADEMIC COOPERATION FOUNDATION GYEONGSANG …, priority 2020, published 2023)

Assays:
corticosterone = assay: Change in plasma corticosterone level after CIS and glutamine supplementation; format: in vivo, mouse; conditions: STR+Gln vs STR; glutamine 150 mg/kg of feed
Experimental: In the present invention, C57BL/6 male mice (7-weeks old, KOATECH, South Korea) were kept under standard conditions (i.e., temperature of 22 to 24° C., humidity of 50 to 70%, and 12-hour light/dark cycle with lighting on 6 AM), and the animals were allowed to have free access to diets and water. The animals used for the present invention were handled according to the protocol (GNU-161128-M0068) acknowledged by Gyeongsang National University Institutional Animal Care and Use Committee (GNU IACUC), which follows the guidelines of National Institutes of Health (NIH, Bethesda, MD, USA). Control (CTL) is a group which received normal diet (common diet with nutritional balance) without any stress, CTL+Gln group is a normal diet group supplemented with glutamine (150 mg/kg of feed) and without any stress, STR is a normal diet group under stress, and STR+Gln group is a normal diet group supplemented with glutamine (150 mg/kg of feed) under stress. The stress group (STR) was individually brought by force to a restrainer for 2 hours every day (i.e., between 2 PM and 4 PM) so that the animals are applied with chronic immobilization stress for 15 days.

PSD-95 and synaptophysin = assay: Synaptic puncta by co-localization of PSD-95 and synaptophysin after CIS and glutamine supplementation; format: in vivo, mouse; conditions: infralimbic cortex and hippocampal CA1 region (FIGS. 5E and 6F)
Experimental: Control (CTL) is a group which received normal diet (common diet with nutritional balance) without any stress, CTL+Gln group is a normal diet group supplemented with glutamine (150 mg/kg of feed) and without any stress, STR is a normal diet group under stress, and STR+Gln group is a normal diet group supplemented with glutamine (150 mg/kg of feed) under stress. The stress group (STR) was individually brought by force to a restrainer for 2 hours every day (i.e., between 2 PM and 4 PM) so that the animals are applied with chronic immobilization stress for 15 days. Twenty-four hours after applying the last stress, the mouse was anesthetized with avertin, and perfused with PBS (pH 7.4) and 4% formaldehyde. After that, the brain was removed, fixed, and cut to a thickness with 40 μm. It was then incubated overnight after the addition of each antibody, nNOS (sc-5302, 200 μg/ml, Santa Cruz, Dallas, TX, USA, 1:50), iNOS (sc-7271, 200 μg/ml, Santa Cruz, 1:20), p47phox (sc-17845, 200 μg/ml, Santa Cruz, 1:20), p67phox (15551-1-AP, 43 μg/150 μl, Proteintech, Rosemont, IL, USA, 1:100), PSD-95 (postsynaptic density-95) (ab12093, 1 mg/ml, Abcam, Cambridge, UK, 1: 200), and synaptophysin (ab14692, 0.65 mg/ml, Abcam, 1: 200). […]

[1] = system: 3×TG-AD female mouse (model of Alzheimer's disease); assay: ORT cognitive ability test in animal model of Alzheimer's disease with glutamine diet; format: in vivo; conditions: 6-weel old compared to the 2-weeks old
Experimental: As an animal model for cognitive ability evaluation, a 7-weeks old 3×TG-AD female mouse (8 mice. model of Alzheimer's disease) and a C57BL/6 female mouse (10 mice, control) were selected. The animals of each type were divided into 2 groups, and each group was provided with regular animal feed (i.e., normal diet, ND) or glutamine feed (Gln). The glutamine diet group was allowed to consume the feed containing 150 mg glutamine/kg diet, from 2-months old stage to the end of test (i.e., 6 to 7-months old stage). Health state of the animal was checked by measuring, once a week, the bodyweight of the animal and food intake (FIG. 7A). Cognitive ability test of the mouse as an animal model established above was determined by ORT (object recognition test). The animal was habituated in a box for 2 days. On Day 3, it was allowed to explore two identical objects for 10 minutes. On Day 4, one of the two objects was replaced with a novel object, and then, the animal was allowed to explore further for 5 minutes (FIG. 7B). The time spent by animal for exploring after approaching within 1 cm from the periphery of both objects was measured. After carrying out the calculation using Formula (3) below, DI (discrimination index) was calculated and compared to each other. In the present invention, a different novel object was employed for carrying out each test. […]

normal mouse = assay: Cognitive ability of normal mouse after oral administration of glutamine (Y-maze, ORT, OLT); format: in vivo
Experimental: To determine if there is also an effect of orally administered glutamine on improving the cognitive ability of a normal mouse, 2 hours later glutamine administration, any improvement in cognitive ability was examined. The cognitive ability was tested by using Y-maze for testing short-term memory and ORT and OLT (object location recognition test) for testing long-term memory. Y-maze: To a Y-shaped maze consisting of 3 arms that are spread at 120° angle from each other and designated as A, B, and C, respectively, a mouse was introduced. Then, the spontaneous alternation indicating an entrance into different arms, 3 times consecutively, was applied to the following Formula (4) and the calculation was made (FIG. 10A). Three consecutive spontaneous alternation=[(Number of consecutive entry into different arms)/(Total number of arm entries−2)]×100 Formula (4) ORT/OLT: ORT was carried out for 10 minutes as described above, and, 24 hours later, one of the objects was translocated to a new spot and the animal was allowed to explore again for 5 minutes (FIG. 10B).

[2] = oral glutamine, long-term memory, compared to the normal mouse

NC(=O)CC[C@H](N)C(=O)O [glutamine]
plasma corticosterone level (corticosterone): statistically significant decrease | synaptic puncta (co-localization of PSD-95 and synaptophysin) (PSD-95 and synaptophysin): significantly increased | impairment in cognitive ability (object recognition ability, ORT) ([1]; 3×TG-AD glutamine diet group, 150 mg glutamine/kg diet): no significant impairment | decrease of DI value in ORT ([1]; 3×TG-AD group with glutamine diet, average from each individual): 0.1 | spontaneous alternation of Y-maze test (normal mouse; 2 hours later glutamine oral administration, short-term memory): no difference | cognitive ability in OLT (normal mouse; [2]): more enhanced cognitive ability | cognitive ability in ORT (normal mouse; [2]): more enhanced cognitive ability
